Data taken from patent publication US20080221074A1, “Drug Screen and Treatment Method” (priority 2006, published 2008).
Like-named read-outs stand apart in the source and are kept apart here.

Assays:
[1] = tested on: human MG-63 osteosarcoma cell line; experiment: reversal of dexamethasone effects in MG-63 osteoblasts; type: cell-based; conditions: for reversal of the decrease in osteoprotegerin synthesis: 30 nM dexamethasone, compound concentration stated with each value (17α-ethynyl triol: 1 nM)
[2] = tested on: EAE; experiment: PLP-induced EAE, treatment from clinical onset; type: in vivo, female SJL mice; conditions: for course of EAE compared to vehicle-treated mice / mean cumulative score, treatment period: 0.1 mg q.d. po from clinical onset; for mean cumulative score, treatment period: day 1 to 30; for mean cumulative score, follow-up period: day 31 to day 54, post treatment
Experimental: The protocol for conducting the EAE animal model was described in (D. Auci et. al., Ann. NY. Acad. Sci. USA, 1051:730-42, 2005). Female SJL mice (6-8 week old, average body weight of 25 g) obtained from Charles-River were kept under standard laboratory conditions (non specific pathogen germ free) with ad libitum food and water and were allowed to adapt one week to their environment before commencing the study. […] EAA was induced with 200 μL of a 1:1 emulsion of 75 μg proteolipid protein (PLP) and 6 mg/mL Mycobacterium tuberculosis H37RA in complete Freund's adjuvant (CFA). The 200 μL injection was divided among four sites that drained into the auxiliary and inguinal lymphnodes. Pertussis toxin was used as a co-adjuvant and was administered i.p. at 200 ng/mouse on day zero and day two post immunization. Groups were treated with 0.1 mg of compound in 100 μL vehicle, or with vehicle alone, q.d. po (oral gavage) starting at clinical onset of disease and continuing through to day 30 post immunization. […] Clinical grading was carried out by an observer unaware of the treatment: 0=no illness, 1=flaccid tail, 2=moderate paraparesis, 3=severe paraparesis, 4=moribund state, 5=death.

[3] = tested on: NF-κB; experiment: inhibition of NF-κB activation in NF-κB-bla THP-1 cells after LPS stimulation; type: cell-based, human
Text: Inhibition of NF-κB in vitro. […] Activation of NF-κB increases expression of a number of genes that mediate inflammation. This protocol used human THP-1 cells, which are human mononuclear blood cells with a monocyte phenotype. The cell line, referred to as NF-κB-bla THP-1, contained a β-lactamase reporter gene under the control of the NF-kB response element (Invitrogen, CellSensor™, product No. K1176). In this cell line, the β-lactamase reporter gene is stably integrated in the THP-1 cells. This cell line was used to detect agonists or antagonists of the NF-κB signaling pathway. These NF-κB-bla THP-1 cells respond to the presence of tumor necrosis factor alpha (TNFα) or bacterial lipopolysaccharide (LPS) by increased expression of the β-lactamase reporter gene. The level of β-lactamase enzyme activity was measured by fluorescence resonance energy transfer ratiometric detection. TNFα and LPS are both potent inflammation-inducing agents that activate NF-κB in THP1 cells. In this assay, compounds that decrease NF-κB activity, and thus β-lactamase, in the presence of TNFα or LPS are exerting an anti-inflammation activity.
The NF-κB-bla THP-1 cells were maintained by passaging or feeding as needed. […] The cells were plated at 20,000 cells/well in a 384-well Black-wall, clear bottom assay plates (Costar#3712-TC low fluorescence background plates) approximately 24 hours before adding either TNFα at 10 ng/mL or LPS at 0.2 ng/mL to activate NF-κB.
The assays were usually conducted 2-4 times for each compound and the values shown below are averages for each compound.

[4] = tested on: carrageenan-λ induced pleurisy; experiment: carrageenan-λ induced lung (pleural cavity) inflammation; type: in vivo, CD1 male mice; conditions: exudate 4 h after
Text: Treatment of lung inflammation. Three compounds, 3β,16α-dihydroxy-17-oxoandrostane, 3α,16β,17β-trihydroxyandrostane and 3α,16α,17α-trihydroxyandrostane were used to treat inflammation in mice essentially as described (D. Auci et al., Ann. New York Acad. Sci. 1051:730-742 2005). Five to 8 week old CD1 male mice (Charles River, Calco, Italy) were used for the study. The animals were housed in a controlled environment and provided with standard rodent chow and water. Animal care was in compliance with applicable regulations on protection of animals. Mice were allocated into one of the following groups: (1) mice treated with 2% carrageenan-k in saline (carrageenan-λ treated control group), (2) mice treated with 0.1 mg, 0.01 mg or 0.001 mg 3β,16α-dihydroxy-17-oxoandrostane by subcutaneous (s.c.) injection 24 h and 1 h before carrageenan-λ administration, (3) mice treated with 0.1 mg, 0.01 mg or 0.001 mg of 3α,16α,17α-trihydroxyandrostane by s.c. injection 24 and 1 h before carrageenan; (4) mice treated with 0.1 mg, 0.01 mg or 0.001 mg […],16β,17β-trihydroxyandrostane by s.c. injection 24 h and 1 h before carrageenan-λ administration; (5) mice treated with vehicle (0.1% carboxymethylcellulose, 0.9% saline, 2% tween 80, 0.05% phenol) s.c. 24 h and 1 h before carrageenan-λ administration; (6) mice treated with rabbit anti-mouse polyclonal anti-TNF-α antibody (200 μg) given as an intraperitoneal bolus 24 h and 1 h before carrageenan-λ administration (positive control group); and (7) sham-operated mice that were not treated with carrageenan-λ. Each group consisted of 10 mice. All treatments were given in a final volume of 100 μL. Lung (pleural cavity) inflammation was induced as follows. The mice were anaesthetised with isoflurane and a skin incision was made at the level of the left sixth intercostal space. The underlying muscle was dissected and either 0.1 mL saline (control) or 0.1 mL saline containing 2% λ-carrageenan was injected into the pleural cavity. The carrageenan-λ is a potent inducer of inflammation, which is manifested in this protocol by accumulation of fluid and neutrophils in the pleural cavity. The incision was closed with a suture and the animals were allowed to recover.
At 4 h after the injection of carrageenan-λ, the animals were euthanized by exposure to CO2. The chest was carefully opened and the pleural cavity rinsed with 1 mL of saline solution containing heparin (5 U/mL) and indomethacin (10 μg/mL). The exudate and washing solution were removed by aspiration and the total volume measured. Any exudate contaminated with blood was discarded. The amount of exudate was calculated by subtracting the injected 1 mL volume from the total pleural cavity volume that was recovered. The neutrophils in the exudate were suspended in phosphate-buffer saline and counted with an optical microscope in a Burker's chamber after Trypan Blue staining. The results were analysed by one-way ANOVA followed by a Bonferroni post-hoc test for multiple comparisons. A p-value less than 0.05 was considered significant. For statistical analysis each group was compared to the control group of mice that were challenged with carrageenan-k and received no other treatment.
The table below describes the number of neutrophils from the treated animal groups relative to untreated control animals that were exposed to carrageenan-λ, but not treated with anything else (negative control group). The neutrophil number for the negative control group was set at 100% and other groups were compared to this.

[5] = LPS stimulation, 50% of the compound's maximum inhibition, averages, read-out: IC50

CC12CCC(O)CC1=CC(=O)C1C2CCC2(C)C1CCC2(C)O (stereo not drawn) [3β,17β-dihydroxy-7-oxo-17α-methylandrost-5-ene]
reversal of the decrease in osteoprotegerin synthesis [1]: increased osteoprotegerin levels at 100 nM

C[C@]12CC[C@H](O)CC1=C[C@H](O)[C@@H]1[C@@H]2CC[C@@]2(C)[C@H]1CC[C@]2(C)O [3β,7β,17β-trihydroxy-17α-methylandrost-5-ene]
reversal of the decrease in osteoprotegerin synthesis [1]: normal osteoprotegerin levels at 10 nM

Cc1cc(C)c(/C=C2\C(=O)Nc3ccccc32)[nH]1 [SU5416, Z-3-[(2,4-dimethylpyrrol-5-yl)methylidenyl]-2-indolinone, reference compound]
course of EAE compared to vehicle-treated mice [2]: very similar to that observed in the vehicle-treated mice

CC12CCC(O)CC1=CC(O)C1C2CCC2(C)C1CCC2(O)C(F)(F)F (stereo not drawn) [3β,7β,17β-trihydroxy-17α-trifluoromethylandrost-5-ene]
reversal of the decrease in osteoprotegerin synthesis [1]: normal or basal osteoprotegerin levels at 1 μM compound

C[C@]12CC[C@H]3[C@@H]([C@H](O)C=C4C[C@@H](O)CC[C@@]43C)[C@@H]1C[C@@H](O)[C@@H]2O [androst-5-ene-3β,7α,16α,17β-tetrol]
reversal of the decrease in osteoprotegerin synthesis [1]: near normal osteoprotegerin levels at 10 nM

C[C@]12CC[C@H]3[C@@H](CC=C4C[C@](O)(C(F)(F)C(F)(F)F)CC[C@@]43C)[C@@H]1CC[C@@H]2O [3α-pentafluoroethylandrost-5-ene-3β,17β-diol]
maximum inhibition of NF-κB [3]: 50%

C[C@]12CC[C@H]3[C@@H](CC=C4C[C@](O)(C(F)(F)F)CC[C@@]43C)[C@@H]1CC[C@@H]2O [3α-trifluoromethylandrost-5-ene-3β,17β-diol]
course of EAE compared to vehicle-treated mice [2]: significantly improved course of EAE | mean cumulative score, treatment period [2]: 11.2±4.8 | mean cumulative score, follow-up period [2]: 10.8±10.3

C#C[C@@]1(O)CC[C@H]2[C@@H]3[C@@H](O)C=C4C[C@@H](O)CC[C@]4(C)[C@H]3CC[C@@]21C [17β-ethynylandrost-5-ene-3β,7β,17α-triol]
mean cumulative score, treatment period [2]: 14.9±17.6 | mean cumulative score, follow-up period [2]: 18.4±20.6 | EAE incidence ([2]; end of the follow-up period): 85.7% | EAE incidence ([2]; end of the treatment period): 57.1%

C[C@]12CC[C@H](O)C[C@@H]1CC[C@@H]1[C@@H]2CC[C@]2(C)C(=O)[C@H](I)C[C@@H]12 [16α-iodoepiandrosterone]
IC50 [3, 5]: 1.9 nM

C[C@]12CC[C@H](O)C[C@@H]1CC[C@@H]1[C@@H]2CC[C@]2(C)C(=O)[C@@H](Br)C[C@@H]12 [16β-bromoepiandrosterone]
maximum inhibition of NF-κB [3]: 100% | IC50 [3, 5]: 600 nM

C[C@]12CC[C@H]3[C@@H](CCC4C[C@H](O)CC[C@@]43C)[C@@H]1C[C@H](O)[C@@H]2O (stereo partly drawn) [3α,16β,17β-trihydroxyandrostane]
number of neutrophils relative to negative control group (set at 100%) ([4]; 0.001 mg s.c. 24 h and 1 h before carrageenan-λ): 95% | number of neutrophils relative to negative control group (set at 100%) ([4]; 0.01 mg s.c. 24 h and 1 h before carrageenan-λ): 50% | number of neutrophils relative to negative control group (set at 100%) ([4]; 0.1 mg s.c. 24 h and 1 h before carrageenan-λ): 42%

C#C[C@]1(O)CC[C@H]2[C@@H]3CCC4=CC(=O)CC[C@]4(C)[C@H]3CC[C@@]21C [17α-ethynylandrost-4-ene-3-one-17β-ol]
maximum inhibition of NF-κB [3]: 80%

C[C@]12CCCCC1=CC[C@@H]1[C@@H]2CC[C@]2(C)C(=O)[C@H](F)C[C@@H]12 [16α-fluoroandrost-5-ene-17-one]
IC50 ([3]; Homo sapiens, THP-1): 0.03 nM

3α,17α-ethynylandrostane-3α/β,17β-diol
IC50 [3, 5]: 0.2 nM

C[C@]12CC[C@H](O)C[C@@H]1CC[C@@H]1[C@@H]2CC[C@]2(C)[C@@H](O)C(=NO)C[C@@H]12 [5α-androstane-3β,17β-diol-16-oxime]
course of EAE compared to vehicle-treated mice [2]: very similar to that observed in the vehicle-treated mice

C[C@]12CC[C@H](O)CC1=CC[C@@H]1[C@@H]2CC[C@@]2(C)[C@H]1CC[C@@]2(O)C(F)(F)F [17α-trifluoromethylandrost-5-ene-3β,17β-diol]
course of EAE compared to vehicle-treated mice [2]: significantly improved course of EAE

C[C@]12CC[C@H]3[C@@H](CCC4=C[C@H](O)CC[C@@]43C)[C@@H]1CC[C@@H]2O [3α,17β-dihydroxyandrost-4-ene]
dexamethasone induced 11β-HSD mRNA ([1]; similar protocols): decrease | dexamethasone-induced suppression of IL-8 and IL-6 ([1]; similar protocols): statistically significant reversal

C[C@]12CC[C@H]3[C@@H](C(=NO)C=C4C[C@@H](O)CC[C@@]43C)[C@@H]1CC[C@@H]2O [androst-5-ene-3β,17β-diol-7-oxime]
reversal of the decrease in osteoprotegerin synthesis [1]: partially reversed the decrease in osteoprotegerin
